Results from patent US20250000043A1, “NON-TRANSGENIC SUNFLOWER PLANTS HAVING INCREASED TOLERANCE TO HERBICIDES” (BASF Agricultural Solutions Seed US LLC, priority 2021, published 2025).
pIC50: −log10 of the molar value. Read-outs that look alike come from different tables or passages of the source.

How the values were obtained:
wild-type PPO2 enzyme = wild-type PPO2 enzyme (Helianthus annuus, UniProt A0A251TWC2); assay: In vitro PPO inhibition assay, wild type enzyme (Example 5); format: biochemical, sunflower
Chain of wild-type PPO2 enzyme (A0A251TWC2 entry or part of it): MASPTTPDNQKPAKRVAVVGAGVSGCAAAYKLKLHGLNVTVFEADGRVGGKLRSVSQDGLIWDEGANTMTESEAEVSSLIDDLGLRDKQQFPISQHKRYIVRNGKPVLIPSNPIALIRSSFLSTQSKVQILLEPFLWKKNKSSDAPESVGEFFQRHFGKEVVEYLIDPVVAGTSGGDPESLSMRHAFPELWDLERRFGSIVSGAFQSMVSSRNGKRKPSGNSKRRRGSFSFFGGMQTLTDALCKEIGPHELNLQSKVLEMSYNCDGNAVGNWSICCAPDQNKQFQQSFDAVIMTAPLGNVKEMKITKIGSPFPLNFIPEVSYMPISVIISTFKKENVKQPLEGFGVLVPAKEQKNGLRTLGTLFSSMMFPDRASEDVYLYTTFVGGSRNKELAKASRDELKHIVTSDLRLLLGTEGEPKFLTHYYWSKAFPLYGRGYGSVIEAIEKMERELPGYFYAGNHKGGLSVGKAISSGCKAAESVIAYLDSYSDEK
From the text: (§1) To test whether the PPO2_F383I is the main cause of the observed saflufenacil tolerance, we used an in vitro to compare the inhibition potency (IC50) of different PPO inhibiting herbicides between wild-type and mutant PPO2 enzyme. The in vitro assay assesses the oxidation of protoporphyrinogen IX to protoporphyrin IX, catalyzed by the PPO enzyme. Both the wild type and mutant PPO2 proteins were heterologously expressed in E. coli and purified. Purified protein was mixed with different concentrations of the herbicide ranging from 10^−5M to 10^−11M and protein activity was measured. Protein activity is defined as the fluorescence per minute that the reaction generates. In the reaction, the purified PPO enzyme is mixed with substrate protoporphyrinogen IX and the herbicide. The product of the reaction is excited at 405 nm and produces a fluorescence at 630 nm which we detect. IC50 (in Mol) and tolerance factor were calculated.

[1] = target: PPO2_F383I mutant PPO2 enzyme (Helianthus annuus, UniProt A0A251TWC2, F383I); assay: In vitro PPO inhibition assay, mutant enzyme (Example 5); format: biochemical, sunflower
Chain of PPO2_F383I mutant PPO2 enzyme (Helianthus annuus, UniProt A0A251TWC2, F383I) (A0A251TWC2 entry or part of it F383I): as the sequence (A0A251TWC2 entry or part of it) above, with F383I counted along it
From the text: as §1

[2] = tested on: PPO2_F383I mutant PPO2 enzyme; assay: as above; format: biochemical, sunflower; settings: PPO2_F383I versus wild type IC50
From the text: as §1

[3] = tested on: wild type (WT) sunflower line (RHA473); assay: Greenhouse PPO cross-tolerance trial, wild type (Example 7); format: in vivo
Procedure: (§2) In August of 2021, a greenhouse herbicide trial was carried out in Zwijnaarde, Belgium. A homozygous PPO2_F4201 sunflower seed lot (HA452-M), and a wild type (WT) sunflower line (RHA473) were used in the greenhouse trial. Sixteen homozygous PPO2_F4201 mutant plants and six WT plants were sown and treated with each herbicide. […]

[4] = tested on: homozygous PPO2_F4201 sunflower (HA452-M); assay: Greenhouse PPO cross-tolerance trial, mutant (Example 7); format: in vivo; settings: for recovery of PPO2_F4201 plants after early phytotoxicity at 4 DAT: 10 DAT; for survival of PPO2_F4201 plants: all rates tested, MSO 1% v/v
Procedure: as §2

[5] = tested on: Wild Type (WT) sunflower line; assay: Field PPO cross-tolerance trial, wild type (Example 8); format: in vivo; settings: for Phytotoxicity (%) Wild Type (WT) 6DAT / Phytotoxicity (%) Wild Type (WT) 11DAT / Phytotoxicity (%) Wild Type (WT) 14DAT: MSO 1% v/v
Procedure: (§3) A field trial was carried out to assess PPO cross-tolerance in non-introgressed, selfed, homozygous PPO2_F4201 mutants, as well as to assess tolerance differences using increasing rates of herbicides listed in Table 5. The field trial was done in Utrera, Spain, in September of 2021.
(§4) Herbicide treatments (Table 5) were applied in the field when plants had the BBCH12-14 growth stage (2-4 leaves). The field trial design was the randomized complete block design, and 1 replication was considered due to limitation in seed availability. Two entries were used in the field trial, the WT line and the PPO2_F4201 mutant. The experimental plot consisted of 1 entry per plot and 1 row per entry.
(§5) Phytotoxicity of mutant and WT entries was recorded over time, at 6, 11 and 14 DAT, where 100% phytotoxicity indicates complete control (dead plants), and 0% phytotoxicity indicates no control or alive plants without any herbicide injury.

[6] = tested on: PPO2_F420I Mutant sunflower; assay: Field PPO cross-tolerance trial, mutant (Example 8); format: in vivo; settings: for Phytotoxicity (%) PPO2_F420I Mutant 6DAT / Phytotoxicity (%) PPO2_F420I Mutant 11DAT / Phytotoxicity (%) PPO2_F420I Mutant 14DAT: MSO 1% v/v
Procedure: as §3, §4, §5

[7] = tested on: conventional sunflowers (Edison, ES Coloris Clearfield, inbred line HA452); assay: Field trials of sunflower sensitivity to saflufenacil (Example 1); format: in vivo, Helianthus annuus
Procedure: Research was conducted to evaluate the sensitivity of sunflower to the herbicide comprising the active ingredient (AI) saflufenacil (Trade name: Kixor™). The herbicide was applied in 2 field trials at different rates ranging from 0.91 g to 14 g a.i./ha (with 0.5-1% MSO-methylated seed oil-adjuvant) to 2 commercial sunflower varieties [a) a conventional (non-herbicide tolerant) sunflower (“Edison”) which is a linoleic oil-type sunflower, and b) a herbicide tolerant sunflower (“ES Coloris Clearfield which is a linoleic oil-type sunflower] and a public inbred line HA452, from the USDA (United States Department of Agriculture) National Plant Germplasm System (NPGS), deposited under Accession No. PI 642771. The treated plants were at the 2-to-4 leaf-stage (BBCH12-14). Trials were set up in a randomized complete block design with 3 replications and rated for herbicide phytotoxicity (percentage damage) 3, 7, 10 and 14 days after treatment (see also Example 4 for more details). Herbicide phytotoxicity ranges from 0% phytotoxicity (full tolerance) to 100% phytotoxicity (full susceptibility or absence of tolerance).
Full control of all sunflower materials was even observed at the first phytotoxicity evaluation time point, 3 days after treatment (DAT) with saflufenacil (results not shown).
The second field trial (trial 2) compared the adjuvant MSO at two concentrations: 1% v/v, concentration used by the farmer and 0.5%, half the concentration (FIG. 2). With the MSO concentration of 0.5% v/v, which lowers the general herbicidal efficacy of saflufenacil in weeds, control of all sunflower materials was around 80% at the lowest rate of saflufenacil (0.91 g a.i./ha) and 100% at 1.75 g a.i./ha and higher (FIG. 2).

[8] = tested on: progeny of mutant lead LIH16358 (PPO2_F383I); assay: Greenhouse re-assessment of saflufenacil tolerance, mutant progeny (Example 3); format: in vivo, Helianthus annuus
From the text: (§6) As it is not uncommon that in forward field mutant screening for herbicide tolerance ‘false’ tolerant plants are selected, the field candidates were reassessed in the greenhouse. Field harvested seeds of the mutant lead LIH16358 were planted in the greenhouse on Nov. 26, 2019, in Limburgerhof, Germany. The greenhouse trial had the objective to verify if the progeny of mutant lead LIH16358 would survive treatment with saflufenacil. Seeds of the susceptible wild type (HA452) line were planted in the same greenhouse trial as the susceptible reference. Saflufenacil was sprayed at 2.5 g a.i./ha on Dec. 10, 2019. The 2.5 g a.i./ha of saflufenacil corresponds to 12.5 g a.i./ha in field conditions. The final phytotoxicity evaluation in the treated plants was done on Dec. 24, 2019.
(§7) The tolerant progeny individuals of mutant lead LIH16358 produced seeds, which were planted in a follow up greenhouse trial on May 19, 2020. The plants were sprayed with 2.0 g a.i./ha of saflufenacil on Jun. 3, 2020.

[9] = tested on: susceptible wild type (HA452) line; assay: Greenhouse re-assessment of saflufenacil tolerance, wild type reference (Example 3); format: in vivo, Helianthus annuus
From the text: as §6, §7

PPO2_F383I mutant lines = assay: Advanced field trial with saflufenacil, Utrera 2021 (Example 4); format: in vivo, Helianthus annuus
Procedure: M6 seed of eleven lines all originating from the nine plants carrying the PPO2_F383I mutation but with a different pedigree were assessed in an advanced field trial. The advanced field trial was manually planted in Utrera, Spain, on May 3, 2021. One row per mutant entry per plot was considered, and thirty-two seeds were planted per mutant entry per row per plot. Saflufenacil was applied in four increasing rates (0×: 0 g a.i/ha, 0.5×=12.5 g a.i./ha; 1×=25 g a.i./ha and 2×=50 g a.i./ha) when plants were at the BBCH12-14 growth stage. Saflufenacil application took place on Jul. 26, 2021. The field trial design was a strip-block design with four replications.
Phytotoxicity evaluations were done at 2, 5, 12, 19 and 26 days after treatment (DAT) with saflufenacil. As discussed previously, phytotoxicity of the mutant entries and wild type control were scored in each of the evaluation days after saflufenacil treatment. Eleven mutant lines were tested. The field tested one mutant line per row 32 seeds per row, for each saflufenacil rate treatment and replication, this means every plot was made of a single row, so the plot was the row for each mutant line. The phytotoxicity % score was given for each row in comparison to the untreated row of the same mutant line (control), meaning all 11 mutant lines were assessed for phytotoxicity % in all treatments and replications. Phytotoxicity was visually recorded at each evaluation time after saflufenacil application on a per plot basis based on the rating scale table (below).
To better reflect the tolerance of surviving plants, data were expressed in percent herbicide tolerance efficacy by using the formula below:
where: • 0% means no tolerance • 100% means full tolerance

## C#CCN1C(=O)C(F)(F)Oc2cc(F)c(-n3c(=O)n(C)c(=S)n(C)c3=O)cc21 [Trifludimoxazin (Tirexor ™), 1,5-dimethyl-6-thioxo-3-(2,2,7-trifluoro-3-oxo-4-(prop-2-ynyl)-3,4-dihydro-2H-benzo[b][1,4]oxazin-6-yl)-1,3,5-triazinane-2,4-dione]
wild-type PPO2 enzyme
  pIC50: 8.85
[1]
  pIC50: 5.34
[2]
  Tolerance factor: 3257

## C#CCN1C(=O)COc2cc(F)c(N3C(=O)C4=C(CCCC4)C3=O)cc21 [Flumioxazin]
[3]; 4 g/ha, 10 DAT
  surviving WT plants: one
[3]; dose as low as 4 g/ha, greenhouse
  phytotoxicity score of WT plants: 90-100%
[4]
  recovery of PPO2_F4201 plants after early phytotoxicity at 4 DAT: consistent survival and recovery
  survival of PPO2_F4201 plants: survived at all rates
[5]; 45 g a.i./ha
  Phytotoxicity (%) Wild Type (WT) 6DAT: 80%
  Phytotoxicity (%) Wild Type (WT) 11DAT: 75%
  Phytotoxicity (%) Wild Type (WT) 14DAT: 75%
[5]; 55 g a.i./ha
  Phytotoxicity (%) Wild Type (WT) 6DAT: 80%
  Phytotoxicity (%) Wild Type (WT) 11DAT: 70%
  Phytotoxicity (%) Wild Type (WT) 14DAT: 70%
[5]; 65 g a.i./ha
  Phytotoxicity (%) Wild Type (WT) 6DAT: 85%
  Phytotoxicity (%) Wild Type (WT) 11DAT: 80%
  Phytotoxicity (%) Wild Type (WT) 14DAT: 80%
[5]; across flumioxazin rates (45, 55, 65 g a.i./ha)
  WT control level: 75-80%
[6]; 45 g a.i./ha
  Phytotoxicity (%) PPO2_F420I Mutant 6DAT: 20%
  Phytotoxicity (%) PPO2_F420I Mutant 11DAT: 20%
  Phytotoxicity (%) PPO2_F420I Mutant 14DAT: 10%
[6]; 55 g a.i./ha
  Phytotoxicity (%) PPO2_F420I Mutant 6DAT: 30%
  Phytotoxicity (%) PPO2_F420I Mutant 11DAT: 25%
  Phytotoxicity (%) PPO2_F420I Mutant 14DAT: 15%
[6]; 65 g a.i./ha
  Phytotoxicity (%) PPO2_F420I Mutant 6DAT: 30%
  Phytotoxicity (%) PPO2_F420I Mutant 11DAT: 30%
  Phytotoxicity (%) PPO2_F420I Mutant 14DAT: 20%

## COC(=O)CCNC(=O)C(C)Sc1cc(-n2c(=O)cc(C(F)(F)F)n(C)c2=O)c(F)cc1Cl (stereo not drawn) [Tiafenacil]
wild-type PPO2 enzyme; purified enzyme expressed in E. coli, herbicide 10^-5 M to 10^-11 M, read-out: Wild type IC50
  pIC50: 9.03
[1]; purified enzyme expressed in E. coli, herbicide 10^-5 M to 10^-11 M, read-out: PPO2_F383I IC50
  pIC50: 5.89
[2]
  Tolerance factor: 1398

## CC(C)N(C)S(=O)(=O)NC(=O)c1cc(-n2c(=O)cc(C(F)(F)F)n(C)c2=O)c(F)cc1Cl [Saflufenacil]
[7]; 0.91 g a.i./ha, 1% v/v MSO
  phytotoxicity: 100%
[7]; 1% MSO v/v, all applied rates (0.91 to 14 g a.i./ha), field trial 2
  control of sunflower materials: total control
[7]; 1.75 g a.i./ha and higher, MSO 0.5% v/v, field trial 2
  control of all sunflower materials: 100%
[7]; field trial 1, 3 days after treatment
  control of all sunflower materials: Full control
[7]; field trial 1, lowest saflufenacil rate, after 14 days
  control of all three sunflower materials: completed controlled
[8]; 2.0 g a.i./ha, second generation progenies, 14 DAT
  phytotoxicity of individuals: ≥ 25%
[8]; 2.5 g a.i./ha, first generation progeny
  survival after treatment: survived saflufenacil treatment
[9]; 2.0 g a.i./ha, 14 DAT
  phytotoxicity: 100%
[9]; 2.5 g a.i./ha
  control of wild type reference plants: completely controlled and dead
PPO2_F383I mutant lines; 50 g a.i./ha in the field
  survival and seed production: survive and produce seeds
PPO2_F383I mutant lines; across entries and saflufenacil rates
  impact on days to 50% flowering versus untreated: ≤ 5 days
PPO2_F383I mutant lines; all eleven mutant lines, all rates (12.5, 25, 50 g a.i./ha)
  tolerance efficacy (%): high tolerance efficacy
PPO2_F383I mutant lines; all rates including 2x (50 g a.i./ha)
  plant recovery: start to significantly recover at 19 DAT
PPO2_F383I mutant lines; eleven mutant entries, field, 12.5, 25 and 50 g a.i./ha
  phytotoxicity at peak, compared to untreated controls: higher than 15%
PPO2_F383I mutant lines; when flowering was completed, 73 DAT
  plant height, treated versus untreated: untreated plants showed a greater plant height compared to treated plants
wild-type PPO2 enzyme
  pIC50: 8.84
[1]; IC50 for PPO2_F383I
  pIC50: 5.36
[1]; PPO2_F383I IC50, purified enzyme expressed in E. coli, herbicide 10^-5 M to 10^-11 M
  pIC50: 5.37
[2]
  Tolerance factor: 2897
[3]; dose as low as 1.25 g/ha, greenhouse, MSO 1% v/v
  kill of WT plants: all killed
[4]
  recovery of PPO2_F4201 plants after early phytotoxicity at 4 DAT: consistent survival and recovery
  survival of PPO2_F4201 plants: survived at all rates
[5]; 3.125 g a.i./ha
  Phytotoxicity (%) Wild Type (WT) 6DAT: 100%
  Phytotoxicity (%) Wild Type (WT) 11DAT: 100%
  Phytotoxicity (%) Wild Type (WT) 14DAT: 100%
[5]; 6.25 g a.i./ha
  Phytotoxicity (%) Wild Type (WT) 6DAT: 100%
  Phytotoxicity (%) Wild Type (WT) 11DAT: 100%
  Phytotoxicity (%) Wild Type (WT) 14DAT: 100%
[5]; saflufenacil 3.125 and 6.25 g a.i./ha
  phytotoxicity in the WT background: 100%
[6]; 3.125 g a.i./ha
  Phytotoxicity (%) PPO2_F420I Mutant 6DAT: 40%
  Phytotoxicity (%) PPO2_F420I Mutant 11DAT: 35%
  Phytotoxicity (%) PPO2_F420I Mutant 14DAT: 35%
[6]; 6.25 g a.i./ha
  Phytotoxicity (%) PPO2_F420I Mutant 6DAT: 45%
  Phytotoxicity (%) PPO2_F420I Mutant 11DAT: 40%
  Phytotoxicity (%) PPO2_F420I Mutant 14DAT: 40%
[6]; all rates of saflufenacil
  survival of the PPO2_F4201 mutant: survives
[6]; at 11 and 14 DAT
  maximum phytotoxicity in the PPO2_F4201 mutants: 40%
